Molecules are shown by their SMILES.

What all share (type): cell-based
One assay concerns HepG2 (liver cancer). The experiment in a line: MTT antiproliferative assay, HepG2. The conditions noted are these: Homo sapiens, HepG2, 10 μM, 48 or 72 h, read-out: inhibition of cell growth, HepG2. On the procedure:
(§1) The antiproliferative activity of a test compound was determined in cell lines: MDA-MB-231 (breast cancer), HepG2 (liver cancer), SW620 (colon cancer), A375 (malignant melanoma), A431 (epidermoid carcinoma), A549 (lung adenocarcinoma), and HeLa ([…]). MDA-MB-231, HepG2, SW480, SW620, A375, and A431 cells were cultured in Dulbecco's modified Eagle's medium (DMEM) containing 10% fetal bovine serum (FBS). HeLa cells were cultured in MEM/EBSS (MEM) containing 10% FBS. A549 cells were maintained in Kaighn's modification of Ham's F-12 medium containing 10% FBS. The colorimetric MTT (3-(4,5-dimethylthiazol-2-yl)-2,5-diphenyltetrazolium bromide) assay was used to measure the cell viability of different cells following treatment with the test compound.
(§2) Briefly cells were seeded in a 96 well plate at a density of 2,000-5,000 cells/well. Following attachment, the cells were treated with the test compound in media at various concentrations ranging from 0.137 to 100 μM or at a single concentration of 10 μM. After the cells were incubated at 37° C. for 48 or 72 h, MTT (20 μL, 5 mg/mL in PBS) was added to each well and the cells were incubated for another 4 h at 37° C. The supernatant was removed carefully and 150 μL of DMSO was added to each well to dissolve the MTT formazan crystals. The plate was shaken for 15-20 min and the absorbance value of each well was determined using a multi-well plate reader at 490 nm. The wells treated with DMSO were taken as a vehicle control. Data were also obtained similarly for all the replicates and the percentage viability was determined with respect to the DMSO-treated cells. The results are summarized in Table 1 below, wherein A represents no less than 80% inhibition of cell growth at 10 μM; B represents no less than 50% but less than 80% inhibition of cell growth at 10 μM; C represents no less than 30% but less than 50% inhibition of cell growth at 10 μM; and D represents less than 30% inhibition of cell growth at 10 μM.
(Formazan colour is commonly taken as a measure of viable cells.)

Assay [1] concerns A375 (malignant melanoma). Put plainly: MTT antiproliferative assay, A375. To be noted: Homo sapiens, A-375, A375, 10 μM, 48 or 72 h, read-out: inhibition of cell growth, A375. On the procedure: as §1, §2
For assay [2], the system named is MDA-MB-231 (breast cancer). The experiment in a line: MTT antiproliferative assay, MDA-MB-231. The conditions noted are these: Homo sapiens, MDA-MB-231, 10 μM, 48 or 72 h, read-out: inhibition of cell growth, MDA-MB-231. On the procedure:
as §1, §2

For assay [3], the system named is A549 (lung adenocarcinoma). Put plainly: MTT antiproliferative assay, A549. To be noted: Homo sapiens, A549, 10 μM, 48 or 72 h, read-out: inhibition of cell growth, A549. The protocol: as §1, §2
The next assay deals with SW620 (colon cancer). The experiment in a line: MTT antiproliferative assay, SW620. To be noted: Homo sapiens, SW-620, SW620, 10 μM, 48 or 72 h, read-out: inhibition of cell growth, SW620. On the procedure:
as §1, §2

A further assay relates to HeLa (ovarian cancer). The experiment in a line: MTT antiproliferative assay, HeLa. To be noted: Homo sapiens, 48 or 72 h, read-out: inhibition of cell growth, HELA. On the procedure:
as §1, §2

Assay [4] concerns A431 (epidermoid carcinoma). Put plainly: MTT antiproliferative assay, A431. The conditions noted are these: Homo sapiens, A-431, A431, 10 μM, 48 or 72 h, read-out: inhibition of cell growth, A431. The protocol:
as §1, §2

For orientation: inhibition means the share of the control response that was lost under treatment. For `COC1(C)C2=CC=C3[C@@](C)(CC[C@@]4(C)[C@@H]5C[C@](C)(C(=O)O)CC[C@]5(C)CC[C@]34C)C2=CC(=O)C1CC#N` (stereo in doubt) [Compound A38, (2R,4aS,6aS,9S,12bR,14aS,14bR)-10-(cyanomethyl)-9-methoxy-2,4a,6a,9,12b,14a-hexamethyl-11-oxo-1,2,3,4,4a,5,6,6a,9,10,11,12b,13,14,14a,14b-hexadecahydropicene-2-carboxylic acid], the inhibition at 10 µM with HepG2 (liver cancer) is under 30%; in assay [1] it was 30 to 50%; in assay [2], 30 to 50%; in assay [3] it was under 30%; in the assay on SW620 (colon cancer), 50 to 80%; in the assay with HeLa (ovarian cancer) it was at least 80%. For the same compound, the inhibition at 10 µM in assay [4] was 30 to 50%.

`[2H]C([2H])([2H])O[C@]1(C)C(=O)C(=O)C=C2C1=CC=C1[C@@]2(C)CC[C@@]2(C)[C@@H]3C[C@](C)(C(=O)O)CC[C@]3(C)CC[C@]12C` [Compound A2, (2R,4aS,6aS,9S,12bR,14aS,14bR)-9-(methoxy-d3)-2,4a,6a,9,12b,14a-hexamethyl-10,11-dioxo-1,2,3,4,4a,5,6,6a,9,10,11,12b,13,14,14a,14b-hexadecahydropicene-2-carboxylic acid]: the inhibition at 10 µM was 50 to 80% in the assay on HepG2 (liver cancer); 30 to 50% in assay [1]; 50 to 80% in assay [2]; 30 to 50% in assay [3]; 30 to 50% in the assay on SW620 (colon cancer); at least 80% with HeLa (ovarian cancer). In addition, in assay [4], the inhibition at 10 µM lay within 50 to 80%.

For `CC(=O)OC1(C)C(=O)C(=O)C=C2C1=CC=C1[C@@]2(C)CC[C@@]2(C)[C@@H]3C[C@](C)(C(=O)O)CC[C@]3(C)CC[C@]12C` (stereo partly drawn) [Compound A3, (2R,4aS,6aS,12bR,14aS,14bR)-9-(acetyloxy)-2,4a,6a,9,12b,14a-hexamethyl-10,11-dioxo-1,2,3,4,4a,5,6,6a,9,10,11,12b,13,14,14a,14b-hexadecahydropicene-2-carboxylic acid], the inhibition at 10 µM in the assay with HepG2 (liver cancer) was under 30%; in assay [1], under 30%; in assay [2], under 30%; in assay [3] it was 50 to 80%; in the assay on SW620 (colon cancer) it was under 30%; with HeLa (ovarian cancer), 50 to 80%. In addition, the inhibition at 10 µM in assay [4] was at least 80%.

On to `COC(=O)[C@]1(C)CC[C@]2(C)CC[C@]3(C)C4=CC=C5C(=CC(=O)C(=O)C5(C)c5c[nH]c6ccccc56)[C@]4(C)CC[C@@]3(C)[C@@H]2C1` (stereo partly drawn) [Compound A4, methyl (2R,4aS,6aS,12bR,14aS,14bR)-9-(1H-indol-3-yl)-2,4a,6a,9,12b,14a-hexamethyl-10,11-dioxo-1,2,3,4,4a,5,6,6a,9,10,11,12b,13,14,14a,14b-hexadecahydropicene-2-carboxylate], for which the inhibition at 10 µM was 50 to 80% with HepG2 (liver cancer); 50 to 80% in assay [1]; 30 to 50% in assay [2]; 50 to 80% in assay [3]; 50 to 80% in the assay with SW620 (colon cancer); at least 80% in the assay with HeLa (ovarian cancer). Further, the inhibition at 10 µM in assay [4] is at least 80%.

As for `COC(=O)[C@]1(C)CC[C@]2(C)CC[C@]3(C)C4=CC=C5C(=CC(=O)C(=O)[C@@]5(C)OC)[C@]4(C)CC[C@@]3(C)[C@@H]2C1` [Compound A5, methyl (2R,4aS,6aS,9S,12bR,14aS,14bR)-9-methoxy-2,4a,6a,9,12b,14a-hexamethyl-10,11-dioxo-1,2,3,4,4a,5,6,6a,9,10,11,12b,13,14,14a,14b-hexadecahydropicene-2-carboxylate], the inhibition at 10 µM in the assay on HepG2 (liver cancer) is at least 80%; in assay [1], 50 to 80%; in assay [2] it was at least 80%; in assay [3], 30 to 50%; in the assay with SW620 (colon cancer) it was 50 to 80%; with HeLa (ovarian cancer) it was at least 80%. Further, the inhibition at 10 µM in assay [4] was at least 80%.

Turning to `CO[C@]1(C)C(=O)C(=O)C=C2C1=CC=C1[C@@]2(C)CC[C@@]2(C)[C@@H]3C[C@](C)(C(=O)On4nnc5ccccc54)CC[C@]3(C)CC[C@]12C` [Compound A6, 1H-1,2,3-benzotriazol-1-yl (2R,4aS,6aS,9S,12bR,14aS,14bR)-9-methoxy-2,4a,6a,9,12b,14a-hexamethyl-10,11-dioxo-1,2,3,4,4a,5,6,6a,9,10,11,12b,13,14,14a,14b-hexadecahydropicene-2-carboxylate], the inhibition at 10 µM was at least 80% in the assay with HepG2 (liver cancer); 30 to 50% in assay [1]; 50 to 80% in assay [2]; 50 to 80% in assay [3]; 50 to 80% with SW620 (colon cancer); at least 80% with HeLa (ovarian cancer). In addition, in assay [4], the inhibition at 10 µM lay within 50 to 80%.

For the compound `CO[C@]1(C)C(=O)C(=O)C=C2C1=CC=C1[C@@]2(C)CC[C@@]2(C)[C@@H]3C[C@](C)(C(=O)F)CC[C@]3(C)CC[C@]12C` [Compound A8, (2R,4aS,6aS,9S,12bR,14aS,14bR)-9-methoxy-2,4a,6a,9,12b,14a-hexamethyl-10,11-dioxo-1,2,3,4,4a,5,6,6a,9,10,11,12b,13,14,14a,14b-hexadecahydropicene-2-carbonyl fluoride], the inhibition at 10 µM with HepG2 (liver cancer) is at least 80%; in assay [1], 30 to 50%; in assay [2], 50 to 80%; in assay [3], 50 to 80%; in the assay with SW620 (colon cancer) it was 50 to 80%; in the assay with HeLa (ovarian cancer) it was 50 to 80%. The inhibition at 10 µM in assay [4] is at least 80%.

Turning to `CCNC(=O)[C@]1(C)CC[C@]2(C)CC[C@]3(C)C4=CC=C5C(=CC(=O)C(=O)[C@@]5(C)OC)[C@]4(C)CC[C@@]3(C)[C@@H]2C1` [Compound A10, (2R,4aS,6aS,9S,12bR,14aS,14bR)—N-ethyl-9-methoxy-2,4a,6a,9,12b,14a-hexamethyl-10,11-dioxo-1,2,3,4,4a,5,6,6a,9,10,11,12b,13,14,14a,14b-hexadecahydropicene-2-carboxamide], the inhibition at 10 µM with HepG2 (liver cancer) was 50 to 80%; in assay [1] it was 30 to 50%; in assay [2], at least 80%; in assay [3], 30 to 50%; in the assay with SW620 (colon cancer), 50 to 80%; with HeLa (ovarian cancer), at least 80%. Besides, in assay [4], the inhibition at 10 µM lay in the range of 50 to 80%.

In the case of `CO[C@]1(C)C(=O)C(=O)C=C2C1=CC=C1[C@@]2(C)CC[C@@]2(C)[C@@H]3C[C@](C)(C(=O)OCc4ccccc4)CC[C@]3(C)CC[C@]12C` [Compound A11, benzyl (2R,4aS,6aS,9S,12bR,14aS,14bR)-9-methoxy-2,4a,6a,9,12b,14a-hexamethyl-10,11-dioxo-1,2,3,4,4a,5,6,6a,9,10,11,12b,13,14,14a,14b-hexadecahydropicene-2-carboxylate], the inhibition at 10 µM is at least 80% in the assay with HepG2 (liver cancer); 50 to 80% in assay [1]; at least 80% in assay [2]; under 30% in assay [3]; at least 80% in the assay on SW620 (colon cancer); at least 80% in the assay on HeLa (ovarian cancer). In addition, in assay [4], the inhibition at 10 µM was under 30%.

For `CCCNC(=O)[C@]1(C)CC[C@]2(C)CC[C@]3(C)C4=CC=C5C(=CC(=O)C(=O)[C@@]5(C)OC)[C@]4(C)CC[C@@]3(C)[C@@H]2C1` [Compound A12, (2R,4aS,9S,6aS,12bR,14aS,14bR)—N-propyl-9-methoxy-2,4a,6a,9,12b,14a-hexamethyl-10,11-dioxo-1,2,3,4,4a,5,6,6a,9,10,11,12b,13,14,14a,14b-hexadecahydropicene-2-carboxamide], the inhibition at 10 µM in the assay with HepG2 (liver cancer) is at least 80%; in assay [1], 30 to 50%; in assay [2], 50 to 80%; in assay [3], at least 80%; in the assay on SW620 (colon cancer) it was 50 to 80%; in the assay with HeLa (ovarian cancer) it was at least 80%. The inhibition at 10 µM in assay [4] was at least 80%.
